Target: T1, human IBAT (Homo sapiens, UniProt Q12908)
T1 sequence (Q12908 1-348): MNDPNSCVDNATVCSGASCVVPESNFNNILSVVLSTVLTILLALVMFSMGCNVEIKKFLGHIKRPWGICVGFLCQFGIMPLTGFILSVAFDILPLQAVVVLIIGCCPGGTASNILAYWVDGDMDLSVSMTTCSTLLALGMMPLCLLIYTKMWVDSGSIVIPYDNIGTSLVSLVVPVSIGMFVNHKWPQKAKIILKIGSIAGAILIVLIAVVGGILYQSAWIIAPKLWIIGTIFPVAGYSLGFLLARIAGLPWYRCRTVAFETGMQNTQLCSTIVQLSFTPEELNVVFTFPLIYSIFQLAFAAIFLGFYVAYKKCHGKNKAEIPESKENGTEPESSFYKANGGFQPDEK
Experiment: In vitro assay using Cos 7 cells, transiently expressed human IBAT
Format: cell-based
Details: 37° C., 60 minutes
Experimental: In the present Test Example, an in vitro assay of compounds using Cos 7 cells as to inhibitory activity on transiently expressed human IBAT or rat IBAT transporter was performed according to the method described in Am. J. Physiol., 274, G157-169.
That is, […] cells/well of Cos 7 cells were seeded in a 24-well plate, and after one day, the cells were transfected with 0.3 μg/well of cDNA of human IBAT or rat IBAT using FuGENE6 (supplied from Roche). After culturing for one day after the transfection, the cells were washed once with the assay buffer, i.e., Hanks buffer containing 25 mM glucose and 10 mM HEPES (pH 7.4). The assay buffer was then replaced with the assay buffer containing the test compound. [^3H]-Taurocholate at a final concentration of 8 μM was added thereto and incubated at 37° C. for 60 minutes so that [^3H]-taurocholate was taken into Cos 7 cells by the action of human IBAT or rat IBAT. The cells were washed twice with the assay buffer containing 1 mM taurocholate, and subsequently lysed with 0.2 M NaOH to stop the reaction. The cell lysate was added to 4 mL of liquid scintillation cocktail, which was then thoroughly vortexed. Then the radioactivity was measured using the liquid scintillation counter.

IC50 ([3H]-taurocholate 8 μM uptake)	Compound	IC50 ([3H]-taurocholate 8 μM)
58 nM	CCCCC1(CCCC)CS(=O)(=O)c2ccc(N(C)C)cc2C(c2cccc(NC(=S)Nc3ccc(C[N+](C)(CCC)CCC)cc3)c2)N1 (racemic) [EXAMPLE 3426]	–
55 nM	CCCCC1(CCCC)CS(=O)(=O)c2ccc(N(C)C)cc2C(c2cccc(NC(=S)Nc3ccc(C[N+](C)(C)Cc4cccs4)cc3)c2)N1 (racemic) [EXAMPLE 3449]	–
68 nM	CCCCC1(CCCC)CS(=O)(=O)c2ccc(N(C)C)cc2C(c2cccc(NC(=S)Nc3ccc(C[N+](C)(C)CC(C)O)cc3)c2)N1 (racemic) [EXAMPLE 3454]	–
127 nM	CCCCC1(CCCC)CS(=O)(=O)c2ccc(N(C)C)cc2C(c2cccc(NC(=S)Nc3ccc(C[N+](C)(C)CCN(C)C)cc3)c2)N1 (racemic) [EXAMPLE 3506]	–
70 nM	CCCCC1(CCCC)CS(=O)(=O)c2ccc(N(C)C)cc2C(c2cccc(NC(=S)Nc3ccc(C[N+]4(C)CCCCC4)cc3)c2)N1 (racemic) [EXAMPLE 3587]	–
69 nM	CCCCC1(CCCC)CS(=O)(=O)c2ccc(N(C)C)cc2C(c2cccc(NC(=S)Nc3ccc(C[N+]45CCC(CC4)C(O)C5)cc3)c2)N1 (racemic) [EXAMPLE 3697]	–
70 nM	CCCCC1(CCCC)CS(=O)(=O)c2ccc(N(C)C)cc2C(c2cccc(NC(=S)Nc3ccc(C[n+]4ccccc4)cc3)c2)N1 (racemic) [EXAMPLE 3708]	–
39 nM	CCCCC1(CCCC)CS(=O)(=O)c2ccc(N(C)C)cc2C(c2cccc(NC(=S)Nc3ccc(C[n+]4cccc(CC)c4)cc3)c2)N1 (racemic) [EXAMPLE 3722]	–
73 nM	CCCCC1(CCCC)CS(=O)(=O)c2ccc(N(C)C)cc2C(c2cccc(NC(=S)Nc3ccc(C[n+]4cccc(-c5cccs5)c4)cc3)c2)N1 (racemic) [EXAMPLE 3726]	–
84 nM	CCCCC1(CCCC)CS(=O)(=O)c2ccc(N(C)C)cc2C(c2cccc(NC(=S)Nc3ccc(C[n+]4cc(C)cc(-c5ccccc5)c4)cc3)c2)N1 (racemic) [EXAMPLE 3730]	–
81 nM	CCCCC1(CCCC)CS(=O)(=O)c2ccc(N(C)C)cc2C(c2cccc(NC(=S)Nc3ccc(C[n+]4cccc(C(=O)c5ccccc5)c4)cc3)c2)N1 (racemic) [EXAMPLE 3748]	–
92 nM	CCCCC1(CCCC)CS(=O)(=O)c2ccc(N(C)C)cc2C(c2cccc(NC(=S)Nc3ccc(C[n+]4ccc(NC=O)cc4)cc3)c2)N1 (racemic) [EXAMPLE 3754]	–
80 nM	CCCCC1(CCCC)CS(=O)(=O)c2ccc(N(C)C)cc2C(c2cccc(NC(=S)Nc3ccc(C[n+]4ccc(CCc5ccncc5)cc4)cc3)c2)N1 (racemic) [EXAMPLE 3764]	–
100 nM	CCCCC1(CCCC)CS(=O)(=O)c2ccc(N(C)C)cc2C(c2cccc(NC(=S)Nc3ccc(C[n+]4ccc(N(C)C)cc4)cc3)c2)N1 (racemic) [EXAMPLE 4210]	–
97 nM	CCCCC1(CCCC)CS(=O)(=O)c2ccc(N(C)C)cc2C(c2cccc(NC(=S)Nc3ccc(C[n+]4ccc(C(C)O)cc4)cc3)c2)N1 (racemic) [EXAMPLE 5411]	–
–	CCCCC1(CCCC)CS(=O)(=O)c2ccc(N(C)C)cc2C(c2cccc(NC(=S)Nc3ccc(C[n+]4ccccc4OCC)cc3)c2)N1 (racemic) [EXAMPLE 5415]	44 nM
26 nM	CCCCC1(CCCC)CS(=O)(=O)c2ccc(N(C)C)cc2C(c2cccc(NC(=S)Nc3ccc(C[n+]4cc(O)cc(Cl)c4)cc3)c2)N1 (racemic) [EXAMPLE 5417]	–
100 nM	CCCCC1(CCCC)CS(=O)(=O)c2ccc(N(C)C)cc2C(c2cccc(NC(=S)NCCC[N+]3(Cc4ccccc4)CCCC(CO)C3)c2)N1 (centres unmarked) [EXAMPLE 592]	–
92 nM	CCCCC1(CCCC)CS(=O)(=O)c2ccc(N(C)C)cc2C(c2cccc(NC(=S)NCCC[N+]3(Cc4ccccc4)CCC(CCO)CC3)c2)N1 (centres unmarked) [EXAMPLE 593]	–
68 nM	CCCCCC[N+](C)(C)Cc1ccc(NC(=S)Nc2cccc(C3NC(CCCC)(CCCC)CS(=O)(=O)c4ccc(N(C)C)cc43)c2)cc1 (centres unmarked) [EXAMPLE 3410]	–
75 nM	CCCCCCCC[N+](C)(C)Cc1ccc(NC(=S)Nc2cccc(C3NC(CCCC)(CCCC)CS(=O)(=O)c4ccc(N(C)C)cc43)c2)cc1 (centres unmarked) [EXAMPLE 3412]	–
73 nM	CCCCCCCCC[N+](C)(C)Cc1ccc(NC(=S)Nc2cccc(C3NC(CCCC)(CCCC)CS(=O)(=O)c4ccc(N(C)C)cc43)c2)cc1 (centres unmarked) [EXAMPLE 3413]	–
88 nM	CCCCCCCCCC[N+](C)(C)Cc1ccc(NC(=S)Nc2cccc(C3NC(CCCC)(CCCC)CS(=O)(=O)c4ccc(N(C)C)cc43)c2)cc1 (centres unmarked) [EXAMPLE 3414]	–
55 nM	C=CC[N+](C)(C)Cc1ccc(NC(=S)Nc2cccc(C3NC(CCCC)(CCCC)CS(=O)(=O)c4ccc(N(C)C)cc43)c2)cc1 (centres unmarked) [EXAMPLE 3429]	–

IC50 ([3H]-taurocholate 8 μM uptake)	Compound	IC50 ([3H]-taurocholate 8 μM)
55 nM	C#CC[N+](C)(C)Cc1ccc(NC(=S)Nc2cccc(C3NC(CCCC)(CCCC)CS(=O)(=O)c4ccc(N(C)C)cc43)c2)cc1 (centres unmarked) [EXAMPLE 3433]	–
71 nM	CCC#CC[N+](C)(C)Cc1ccc(NC(=S)Nc2cccc(C3NC(CCCC)(CCCC)CS(=O)(=O)c4ccc(N(C)C)cc43)c2)cc1 (centres unmarked) [EXAMPLE 3434]	–
85 nM	CCCCC1(CCCC)CS(=O)(=O)c2ccc(N(C)C)cc2C(c2cccc(NC(=S)Nc3ccc(C[N+](C)(C)C(C)c4ccccc4)cc3)c2)N1 (centres unmarked) [EXAMPLE 3441]	–
70 nM	CCCCC1(CCCC)CS(=O)(=O)c2ccc(N(C)C)cc2C(c2cccc(NC(=S)Nc3ccc(C[N+](C)(C)CCOC(=O)c4ccccc4)cc3)c2)N1 (centres unmarked) [EXAMPLE 3558]	–
94 nM	CCCCC1(CCCC)CS(=O)(=O)c2ccc(N(C)C)cc2C(c2cccc(NC(=S)Nc3ccc(C[N+]4(CC)CCCC4)cc3)c2)N1 (centres unmarked) [EXAMPLE 3568]	–
70 nM	CCCCC1(CCCC)CS(=O)(=O)c2ccc(N(C)C)cc2C(c2cccc(NC(=S)Nc3ccc(C[N+]4(Cc5ccccc5)CCCCC4)cc3)c2)N1 (centres unmarked) [EXAMPLE 3593]	–
54 nM	CCCCC1(CCCC)CS(=O)(=O)c2ccc(N(C)C)cc2C(c2cccc(NC(=S)Nc3ccc(C[N+]4(C)CCC(O)CC4)cc3)c2)N1 (centres unmarked) [EXAMPLE 3599]	–
45 nM	CCCCC1(CCCC)CS(=O)(=O)c2ccc(N(C)C)cc2C(c2cccc(NC(=S)Nc3ccc(C[N+]4(Cc5ccccc5)CCCC(O)C4)cc3)c2)N1 (centres unmarked) [EXAMPLE 3604]	–
72 nM	CCCCC1(CCCC)CS(=O)(=O)c2ccc(N(C)C)cc2C(c2cccc(NC(=S)Nc3ccc(C[N+]45CCC(CC4)C(=O)C5)cc3)c2)N1 (centres unmarked) [EXAMPLE 3698]	–
63 nM	CCCCC1(CCCC)CS(=O)(=O)c2ccc(N(C)C)cc2C(c2cccc(NC(=S)Nc3ccc(C[n+]4ccc(CCC)cc4)cc3)c2)N1 (centres unmarked) [EXAMPLE 3711]	–
58 nM	CCCCC1(CCCC)CS(=O)(=O)c2ccc(N(C)C)cc2C(c2cccc(NC(=S)Nc3ccc(C[n+]4ccc(C(CC)CC)cc4)cc3)c2)N1 (centres unmarked) [EXAMPLE 3714]	–
89 nM	CCCCC(CCCC)c1cc[n+](Cc2ccc(NC(=S)Nc3cccc(C4NC(CCCC)(CCCC)CS(=O)(=O)c5ccc(N(C)C)cc54)c3)cc2)cc1 (centres unmarked) [EXAMPLE 3716]	–
30 nM	CCCCC1(CCCC)CS(=O)(=O)c2ccc(N(C)C)cc2C(c2cccc(NC(=S)Nc3ccc(C[n+]4ccc(-c5ccccc5)cc4)cc3)c2)N1 (centres unmarked) [EXAMPLE 3717]	–
69 nM	CCCCC1(CCCC)CS(=O)(=O)c2ccc(N(C)C)cc2C(c2cccc(NC(=S)Nc3ccc(C[n+]4cccc(-c5ccccc5)c4)cc3)c2)N1 (centres unmarked) [EXAMPLE 3724]	–
52 nM	CCCCC1(CCCC)CS(=O)(=O)c2ccc(N(C)C)cc2C(c2cccc(NC(=S)Nc3ccc(C[n+]4cccc(Cc5ccccc5)c4)cc3)c2)N1 (centres unmarked) [EXAMPLE 3725]	–
66 nM	CCCCC1(CCCC)CS(=O)(=O)c2ccc(N(C)C)cc2C(c2cccc(NC(=S)Nc3ccc(C[n+]4ccc(C)c(C)c4)cc3)c2)N1 (centres unmarked) [EXAMPLE 3727]	–
88 nM	CCCCC1(CCCC)CS(=O)(=O)c2ccc(N(C)C)cc2C(c2cccc(NC(=S)Nc3ccc(C[n+]4cc(C)cc(C)c4)cc3)c2)N1 (centres unmarked) [EXAMPLE 3729]	–
57 nM	CCCCC1(CCCC)CS(=O)(=O)c2ccc(N(C)C)cc2C(c2cccc(NC(=S)Nc3ccc(C[n+]4ccc(CCCO)cc4)cc3)c2)N1 (centres unmarked) [EXAMPLE 3733]	–
50 nM	CCCCC1(CCCC)CS(=O)(=O)c2ccc(N(C)C)cc2C(c2cccc(NC(=S)Nc3ccc(C[n+]4ccc(C(C)=O)cc4)cc3)c2)N1 (centres unmarked) [EXAMPLE 3736]	–
75 nM	CCCCCCOC(=O)c1ccc[n+](Cc2ccc(NC(=S)Nc3cccc(C4NC(CCCC)(CCCC)CS(=O)(=O)c5ccc(N(C)C)cc54)c3)cc2)c1 (centres unmarked) [EXAMPLE 3750]	–
28 nM	CCCCC1(CCCC)CS(=O)(=O)c2ccc(N(C)C)cc2C(c2cccc(NC(=S)CCCCC[N+]34CCC(CC3)C(O)C4)c2)N1 (centres unmarked) [EXAMPLE 3854]	–
52 nM	CCCCC1(CCCC)CS(=O)(=O)c2ccc(N(C)C)cc2C(c2cccc(NC(=S)Nc3ccc(C[n+]4ccccc4C)cc3)c2)N1 (centres unmarked) [EXAMPLE 5407]	–
42 nM	CCCCC1(CCCC)CS(=O)(=O)c2ccc(N(C)C)cc2C(c2cccc(NC(=S)Nc3ccc(C[n+]4c(C)cc(C)cc4C)cc3)c2)N1 (centres unmarked) [EXAMPLE 5409]	–

Source: patent US20120015925A1, “NOVEL BENZOTHIAZEPINE AND BENZOTHIEPINE COMPOUNDS” (ASAHI KASEI PHARMA CORPORATION, priority 2004, published 2012)
